What was measured:
PI3Kα = molecular target: T1, PI3Kα (Homo sapiens, UniProt P42336); test: PI3Kα isoform profiling (PI3Kδ protocol); type: biochemical; conditions: for PI3Kα @ 0.3 μM (% Inh): 0.3 μM compound; for IC50: 10 dose IC50
T1 construct: purchased Reaction Biology Corporation
Source text: (§1) PI3Kδ assay: The PIP3 product is detected by displacement of biotin-PIP3 from an energy transfer complex consisting of Europium labeled anti-GST monoclonal antibody, a GST-tagged pleckstrin homology (PH) domain, biotinylated PIP3 and Streptavidin-Allophycocyanin (APC). Excitation of Europium in the complex results in an energy transfer to the APC and a fluorescent emission at 665 nm. The PIP3 product formed by PI 3-Kinase(h) activity displaces biotin-PIP3 from the complex resulting in a loss of energy transfer and thus a decrease in signal. This is a 3-step reaction: First, the kinase reaction with PIP2 substrate is carried out in the presence of ATP (10 μM), and the reaction is quenched with stop Solution, and then finally detect by adding Detection Mixture followed by incubation (10 min). Reaction procedure: 1) Prepare substrate in freshly prepared Reaction Buffer. 2) Deliver kinase into the substrate solution and gently mix. 3) Deliver compounds in 100% DMSO (1 μM) into the kinase reaction mixture by Acoustic technology (Echo550; nanoliter range), incubate for 10 min at RT. 4) Deliver ATP into the reaction mixture to initiate the reaction. 5) Incubate for 30 min at 30° C. 6) Quench the reaction with Stop Solution. 7) Add Detection Mixture, and incubate for overnight. 8) Measure HTRF: Ex=320 nm, ratio of Em=615 nm and Em=665 nm. The emission ratio is converted into μM PIP3 production based on PIP3 standard curves. The nonlinear regression to obtain the standard curve and IC50 values are performed using Graphpad Prism software. Assay Buffer: HEPES 50 mM (pH7.0), NaN3 0.02%, BSA 0.01%, Orthovanadate 0.1 mM, 1% DMSO. Detection buffer: HEPES 10 mM (pH7.0), BSA 0.02%, KF 0.16 M, EDTA 4 mM. Substrate: 10 μM PIP2 substrate (PI(4,5)P2).
(§2) Compounds of the invention were profiled in a 10 dose IC50 panel against PI3Kα, PI3Kβ, and PI3Kγ kinases, provided by Reaction Biology Corporation, applied to the PI3Kδ protocol provided in Example B1.

PI3Kβ = molecular target: T2, PI3Kβ (Homo sapiens, UniProt P42338); test: PI3Kβ isoform profiling (PI3Kδ protocol); type: biochemical; conditions: 0.3 μM compound
T2 construct: purchased Reaction Biology Corporation
T2 sequence (P42338 whole entry, canonical isoform): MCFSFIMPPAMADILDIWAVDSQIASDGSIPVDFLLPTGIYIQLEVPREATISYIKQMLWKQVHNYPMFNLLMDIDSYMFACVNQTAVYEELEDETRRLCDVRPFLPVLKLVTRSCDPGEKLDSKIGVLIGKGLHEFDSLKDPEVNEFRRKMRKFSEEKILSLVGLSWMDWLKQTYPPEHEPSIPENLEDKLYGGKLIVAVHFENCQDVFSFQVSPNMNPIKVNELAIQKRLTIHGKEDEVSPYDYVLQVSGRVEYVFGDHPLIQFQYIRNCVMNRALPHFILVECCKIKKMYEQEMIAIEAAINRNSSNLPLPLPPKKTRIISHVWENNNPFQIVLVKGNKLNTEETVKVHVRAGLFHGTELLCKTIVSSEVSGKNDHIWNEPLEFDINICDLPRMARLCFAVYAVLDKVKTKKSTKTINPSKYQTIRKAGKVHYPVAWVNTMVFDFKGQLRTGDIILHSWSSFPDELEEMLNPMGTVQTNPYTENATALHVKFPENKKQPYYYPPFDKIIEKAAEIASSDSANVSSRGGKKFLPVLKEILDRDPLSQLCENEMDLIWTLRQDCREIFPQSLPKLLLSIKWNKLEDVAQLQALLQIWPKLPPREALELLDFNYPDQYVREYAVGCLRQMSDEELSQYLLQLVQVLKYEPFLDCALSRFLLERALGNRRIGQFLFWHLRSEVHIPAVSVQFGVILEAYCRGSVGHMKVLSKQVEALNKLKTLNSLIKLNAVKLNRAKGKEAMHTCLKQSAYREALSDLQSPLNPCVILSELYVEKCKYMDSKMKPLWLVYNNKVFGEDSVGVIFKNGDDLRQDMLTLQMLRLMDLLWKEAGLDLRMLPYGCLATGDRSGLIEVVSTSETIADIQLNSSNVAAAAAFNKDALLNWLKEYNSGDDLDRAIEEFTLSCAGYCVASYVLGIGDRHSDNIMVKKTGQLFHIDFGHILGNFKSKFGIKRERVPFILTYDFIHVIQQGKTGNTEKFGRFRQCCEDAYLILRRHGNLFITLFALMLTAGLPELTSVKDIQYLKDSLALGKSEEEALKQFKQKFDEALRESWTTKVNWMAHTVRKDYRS
T2 sequence (P27986 whole entry partner, canonical isoform): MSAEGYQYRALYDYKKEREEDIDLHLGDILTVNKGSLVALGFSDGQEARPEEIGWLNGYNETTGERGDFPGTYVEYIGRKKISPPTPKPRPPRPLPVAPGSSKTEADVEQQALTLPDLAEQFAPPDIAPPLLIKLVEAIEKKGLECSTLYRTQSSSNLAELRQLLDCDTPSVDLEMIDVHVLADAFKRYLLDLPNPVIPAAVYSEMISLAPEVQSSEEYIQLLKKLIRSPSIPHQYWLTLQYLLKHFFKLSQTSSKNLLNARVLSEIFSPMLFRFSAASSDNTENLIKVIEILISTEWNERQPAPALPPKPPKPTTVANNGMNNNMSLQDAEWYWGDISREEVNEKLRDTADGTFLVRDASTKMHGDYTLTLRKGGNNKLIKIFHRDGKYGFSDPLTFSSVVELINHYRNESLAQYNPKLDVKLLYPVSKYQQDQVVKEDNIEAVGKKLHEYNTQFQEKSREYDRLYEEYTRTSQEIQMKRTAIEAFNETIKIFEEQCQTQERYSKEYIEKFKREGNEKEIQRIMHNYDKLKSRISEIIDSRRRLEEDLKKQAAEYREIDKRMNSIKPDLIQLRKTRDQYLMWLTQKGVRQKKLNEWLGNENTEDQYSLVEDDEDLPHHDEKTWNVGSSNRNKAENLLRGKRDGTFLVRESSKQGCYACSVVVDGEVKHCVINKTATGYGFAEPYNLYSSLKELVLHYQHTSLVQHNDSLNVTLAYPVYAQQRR
Source text: as §1, §2

ITK = molecular target: T3, ITK (Homo sapiens, UniProt Q08881); test: ITK kinase profiling (BTK protocol); type: biochemical; conditions: 0.3 μM compound
T3 construct: purchased Reaction Biology Corporation
T3 sequence (Q08881 1-620): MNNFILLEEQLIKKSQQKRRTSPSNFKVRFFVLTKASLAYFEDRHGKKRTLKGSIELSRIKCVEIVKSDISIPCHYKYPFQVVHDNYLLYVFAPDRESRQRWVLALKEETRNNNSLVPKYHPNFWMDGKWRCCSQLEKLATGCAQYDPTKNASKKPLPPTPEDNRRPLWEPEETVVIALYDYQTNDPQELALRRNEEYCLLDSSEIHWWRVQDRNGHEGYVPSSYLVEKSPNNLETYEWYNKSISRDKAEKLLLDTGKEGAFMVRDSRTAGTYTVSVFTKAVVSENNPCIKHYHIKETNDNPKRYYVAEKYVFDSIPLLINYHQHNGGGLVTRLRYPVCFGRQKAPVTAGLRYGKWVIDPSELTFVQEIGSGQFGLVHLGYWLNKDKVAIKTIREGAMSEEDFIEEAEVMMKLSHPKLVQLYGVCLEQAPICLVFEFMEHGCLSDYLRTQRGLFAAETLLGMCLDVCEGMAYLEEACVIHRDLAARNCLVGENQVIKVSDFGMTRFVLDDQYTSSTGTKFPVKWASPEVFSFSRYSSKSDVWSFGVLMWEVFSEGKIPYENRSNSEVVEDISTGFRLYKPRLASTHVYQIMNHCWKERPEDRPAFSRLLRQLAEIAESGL
Description: BTK assay: In vitro profiling protein kinases was performed using the “HotSpot” assay platform. Briefly, specific kinase/substrate pairs along with required cofactors were prepared in reaction buffer. Compounds were prepared as 10 mM stock solutions in DMSO. Compounds were delivered into the reaction, followed 15-20 minutes later by addition of a mixture of ATP (Sigma, St. Louis Mo.) and ^33P ATP (Perkin Elmer, Waltham Mass.) to a final concentration of 10 μM. […] IC50 values and curve fits were obtained using Prism (GraphPad Software). Buffer Conditions: 20 mM Hepes (pH 7.5), 10 mM MgCl2, 1 mM EGTA, 0.02% Brij35, 0.02 mg/mL BSA, 0.1 mM Na3VO4, 2 mM DTT, 1% DMSO.

CD69+B220+ cells = test: B cell activation assay (IgD-stimulated splenocytes, CD69+B220+ cells by FACS); type: cell-based; conditions: IgD 3 μg/mL, 4 h; for CD69 @ 100 nM (% Inh): 100 nM compound
In short: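 Read-out is percent CD69+ among live B220+ cells by FACS after 4 h stimulation with 3 μg/mL IgD at 37 °C. Before stimulation, splenocytes from one female mouse (10^6 cells/mL) received 100 nM compound for 30 min.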

T1 sequence (P42336 whole entry, canonical isoform): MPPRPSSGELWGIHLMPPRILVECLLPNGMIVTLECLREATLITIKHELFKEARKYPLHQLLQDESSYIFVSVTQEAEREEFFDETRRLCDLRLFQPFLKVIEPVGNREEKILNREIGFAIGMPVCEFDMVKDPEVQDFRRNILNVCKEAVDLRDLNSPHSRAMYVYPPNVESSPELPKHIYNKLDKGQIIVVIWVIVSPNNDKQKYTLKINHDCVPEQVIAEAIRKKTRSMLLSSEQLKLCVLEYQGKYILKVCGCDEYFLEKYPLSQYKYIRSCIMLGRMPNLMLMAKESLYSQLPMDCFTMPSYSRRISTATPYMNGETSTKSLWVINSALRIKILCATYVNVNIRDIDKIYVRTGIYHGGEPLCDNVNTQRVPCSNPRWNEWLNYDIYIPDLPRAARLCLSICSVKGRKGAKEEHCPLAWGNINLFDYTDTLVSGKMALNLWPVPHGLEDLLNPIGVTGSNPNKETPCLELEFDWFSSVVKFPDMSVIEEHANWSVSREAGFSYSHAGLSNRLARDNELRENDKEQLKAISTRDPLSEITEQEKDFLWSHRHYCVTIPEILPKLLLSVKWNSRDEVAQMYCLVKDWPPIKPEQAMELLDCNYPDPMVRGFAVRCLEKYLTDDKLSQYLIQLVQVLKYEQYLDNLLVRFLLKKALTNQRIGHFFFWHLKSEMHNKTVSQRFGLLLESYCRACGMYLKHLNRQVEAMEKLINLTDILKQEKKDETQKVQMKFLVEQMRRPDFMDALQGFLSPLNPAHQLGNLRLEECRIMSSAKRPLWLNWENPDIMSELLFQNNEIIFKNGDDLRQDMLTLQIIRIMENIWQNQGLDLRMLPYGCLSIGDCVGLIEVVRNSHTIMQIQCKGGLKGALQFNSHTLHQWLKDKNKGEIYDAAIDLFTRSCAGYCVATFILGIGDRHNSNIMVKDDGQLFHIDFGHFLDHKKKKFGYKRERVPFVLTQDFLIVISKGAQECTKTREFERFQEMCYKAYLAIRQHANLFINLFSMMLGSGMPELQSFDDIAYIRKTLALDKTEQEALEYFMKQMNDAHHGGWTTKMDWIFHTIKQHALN
T1 sequence (P27986 whole entry partner, canonical isoform): as the sequence (P27986 whole entry partner, canonical isoform) above

| Compound | PI3Kα @ 0.3 μM (% Inh) (PI3Kα; 0.3 µM) | PI3Kβ @ 0.3 μM (% Inh) (PI3Kβ; 0.3 µM) | ITK @ 0.3 μM (% Inh) (ITK; 0.3 µM) | IC50 (CD69+B220+ cells; Mus musculus, Splenocyte) [nM] | IC50 (PI3Kα) [nM] | PI3Kβ @ 0.3 μM (% Inh) (PI3Kβ) | ITK @ 0.3 μM (% Inh) (ITK) | IC50 (CD69+B220+ cells; mouse splenocytes) [nM] | IC50 (CD69+B220+ cells; Splenocyte, mouse splenocytes) [nM] | PI3Kα @ 0.3 μM (% Inh) (PI3Kα) | CD69 @ 100 nM (% Inh) (CD69+B220+ cells; mouse splenocytes, 0.1 µM) | CD69 @ 100 nM (% Inh) (CD69+B220+ cells; mouse splenocytes) |
| --- | --- | --- | --- | --- | --- | --- | --- | --- | --- | --- | --- | --- |
| COc1ccc(-c2nn(C3Cc4ccccc4C3)c3ncnc(N)c23)cc1O [Compound No. 68, 5-[4-amino-1-(2,3-dihydro-1H-inden-2-yl)-1H-pyrazolo[3,4-d]pyrimidin-3-yl]-2-methoxyphenol] | – | – | – | – | 14 | 20.68 | −6.84 | – | – | – | – | 44.83 ± 29.77 (n = 6) % Inh |
| Nc1ncnc2c1c(-c1cc(O)cc(F)c1)cn2C1Cc2ccccc2C1 [Compound No. 63, 3-[4-amino-7-(2,3-dihydro-1H-inden-2-yl)-7H-pyrrolo[2,3-d]pyrimidin-5-yl]-5-fluorophenol] | – | – | – | – | 74.7 | 50.79 | 3.68 | – | – | – | – | 21.07 ± 27.71 (n = 9) % Inh |
| Nc1ncnc2c1c(-c1cc(F)c3c(c1)NCCO3)nn2C1Cc2ccccc2C1 [Compound No. 84, 1-(2,3-dihydro-1H-inden-2-yl)-3-(8-fluoro-3,4-dihydro-2H-1,4-benzoxazin-6-yl)-1H-pyrazolo[3,4-d]pyrimidin-4-amine] | – | – | – | 154 | 638 | 27.83 | −2.3 | – | – | – | – | 47.61 ± 24.72 (n = 15) % Inh |
| Nc1ncnc2c1c(-c1cc(O)cc(F)c1)nn2C1Cc2ccc(F)cc2C1 (stereo not drawn) [compound 57, 3-[4-amino-1-(5-fluoro-2,3-dihydro-1H-inden-2-yl)-1H-pyrazolo[3,4-d]pyrimidin-3-yl]-5-fluorophenol] | – | – | – | – | 71.1 | 60.98 | 5.31 | – | 117 ± 83.6 | – | – | 64.26 ± 21.20 (n = 6) % Inh |
| Nc1ncnc2c1c(-c1ccc3cc[nH]c3c1)nn2C1CCc2ccccc2C1 (racemic) [compound 18, 3-(1H-indol-6-yl)-1-(1,2,3,4-tetrahydronaphthalen-2-yl)-1H-pyrazolo[3,4-d]pyrimidin-4-amine] | – | – | – | – | – | 34.21 | −3.29 | – | – | 33.14 | – | 13.22 ± 11.84 (n = 5) % Inh |

Further lines, with some results ahead:

| PI3Kα @ 0.3 μM (% Inh) (PI3Kα; 0.3 µM) | PI3Kβ @ 0.3 μM (% Inh) (PI3Kβ; 0.3 µM) | ITK @ 0.3 μM (% Inh) (ITK; 0.3 µM) | IC50 (CD69+B220+ cells; Mus musculus, Splenocyte) [nM] | IC50 (PI3Kα) [nM] | PI3Kβ @ 0.3 μM (% Inh) (PI3Kβ) | ITK @ 0.3 μM (% Inh) (ITK) | IC50 (CD69+B220+ cells; mouse splenocytes) [nM] | IC50 (CD69+B220+ cells; Splenocyte, mouse splenocytes) [nM] | PI3Kα @ 0.3 μM (% Inh) (PI3Kα) | Compound | CD69 @ 100 nM (% Inh) (CD69+B220+ cells; mouse splenocytes, 0.1 µM) | CD69 @ 100 nM (% Inh) (CD69+B220+ cells; mouse splenocytes) |
| --- | --- | --- | --- | --- | --- | --- | --- | --- | --- | --- | --- | --- |
| 85.6 | 55.06 | 4.58 | 107 ± 26.2 | – | – | – | – | – | – | Nc1ncnc2c1c(-c1cc(O)cc(F)c1)nn2C1CCc2ccccc2C1 (single isomer, unassigned) [6a, 3-(4-amino-1-(1,2,3,4-tetrahydronaphthalen-2-yl)-1H-pyrazolo[3,4-d]pyrimidin-3-yl)-5-fluorophenol] | 64.71 ± 19.01 (n = 6) % Inh | – |
| 91.35 | 69.23 | 0.04 | – | – | – | – | 118 ± 104 | – | – | Nc1ncnc2c1c(-c1cc(O)cc(F)c1)nn2C1CCc2ccccc2C1 (single isomer, unassigned) [6b, 3-(4-amino-1-(1,2,3,4-tetrahydronaphthalen-2-yl)-1H-pyrazolo[3,4-d]pyrimidin-3-yl)-5-fluorophenol] | 68.73 ± 21.60 (n = 6) % Inh | – |
| – | – | – | – | 249 | 32.34 | 6.31 | – | – | – | C=CC(=O)N1CC(n2nc(-c3cc(O)cc(F)c3)c3c(N)ncnc32)Cc2cc(C)ccc21 (single isomer, unassigned) [31b, 1-(3-(4-amino-3-(3-fluoro-5-hydroxyphenyl)-1H-pyrazolo[3,4-d]pyrimidin-1-yl)-6-methyl-3,4-dihydroquinolin-1(2H)-yl)prop-2-en-1-one] | −13.21 ± 4.55 (n = 3) % Inh | – |

— patent US20210317140A1, “Heterocyclic Compounds and Methods of Use” (MEDIVATION TECHNOLOGIES, INC, priority 2013, published 2021)
